Here are results for eight compounds from patent US8802597B2, “Herbicidal pyrimidines” (E I du Pont de Nemours and Company, priority 2003, dated 2014).

Where two headings read alike, the source gives them in different places.

What all share (test): Test A pre/postemergence
What all share (assay type): in vivo

In test [1] the test system is redroot pigweed (Amaranthus retroflexus). The following applies: for pest or weed control at 125 g/ha / pest or weed control at 500 g/ha: Amaranthus retroflexus, 240 h, read-out: Plant response rating, Pigweed. In outline:
(§1)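 Ratings: 0 = no effect, 100 = complete control, assessed visually about ten days post-treatment in a greenhouse. Applications: soil-directed preemergence spray and postemergence spray on 1- to 2-leaf plants, both using a surfactant-containing non-phytotoxic solvent formulation.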

Test [2] deals with morningglory (Ipomoea spp.). The following applies: for pest or weed control at 125 g/ha / pest or weed control at 500 g/ha: Ipomoea, 240 h, read-out: Plant response rating, Morningglory. In outline: as §1
Test [3] concerns giant foxtail (Setaria faberi). The following applies: for pest or weed control at 125 g/ha / pest or weed control at 500 g/ha: Setaria faberi, 240 h, read-out: Plant response rating, Foxtail, Giant. A digest of the protocol:
as §1

Test [4] has as its system velvetleaf (Abutilon theophrasti). Conditions: for pest or weed control at 125 g/ha / pest or weed control at 500 g/ha: Abutilon theophrasti, 240 h, read-out: Plant response rating, Velvetleaf. A digest of the protocol:
as §1

The mark [5] stands for this setting: post-emergence, Postemergence, 125 g ai/ha, 0 to 100 scale (0 no effect, 100 complete control).
[6] abbreviates: post-emergence, Postemergence, 500 g ai/ha, 0 to 100 scale (0 no effect, 100 complete control).
The mark [7] stands for this setting: pre-emergence, Preemergence, 125 g ai/ha, 0 to 100 scale where 0 is no effect and 100 is complete control, approximately ten days.
Setting [8] is: pre-emergence, Preemergence, 500 g ai/ha, 0 to 100 scale where 0 is no effect and 100 is complete control, approximately ten days.
Where [9] appears, read: Postemergence, 125 g ai/ha, 0 to 100 scale (0 no effect, 100 complete control).
Where [10] appears, read: Postemergence, 500 g ai/ha, 0 to 100 scale (0 no effect, 100 complete control).
The mark [11] stands for this setting: Preemergence, 125 g ai/ha, 0 to 100 scale where 0 is no effect and 100 is complete control, approximately ten days.
The mark [12] stands for this setting: Preemergence, 500 g ai/ha, 0 to 100 scale where 0 is no effect and 100 is complete control, approximately ten days.

As for `CCOC(=O)c1nc(-c2ccc(Br)cc2)nc(N)c1Cl` [Compound 94, ethyl 6-amino-2-(4-bromophenyl)-5-chloro-4-pyrimidinecarboxylate], the pest or weed control at 125 g/ha stood at 80% in test [1] (setting [5]); 90% in test [1] (setting [7]); 70% in test [2] (setting [5]); 30% in test [2] (setting [7]); 45% in test [3] (setting [5]); 20% in test [3] (setting [7]). Further, the pest or weed control at 125 g/ha in test [4] (setting [5]) came to 90%; in test [4] (setting [7]), 75%. Also, the pest or weed control at 500 g/ha was 85% in test [1] (setting [6]); 95% in test [1] (setting [8]); 75% in test [2] (setting [6]); 35% in test [2] (setting [8]); 65% in test [3] (setting [6]); 40% in test [3] (setting [8]). The pest or weed control at 500 g/ha in test [4] (setting [6]) and in test [4] (setting [8]) was 90% each time.
Consider `CCCOC(=O)c1nc(C2CC2)nc(N)c1Cl` [Compound 75], for which the “Plant response rating, Pigweed” value in test [1] (setting [9]) is given as 90; in test [1] (setting [10]), 100; in test [1] (setting [11]) it was 90; in test [1] (setting [12]), 95. The “Plant response rating, Morningglory” value in test [2] (setting [9]) is on record as 90; in test [2] (setting [10]), 90; in test [2] (setting [11]), 95; in test [2] (setting [12]) it was 100. For the same compound, the “Plant response rating, Foxtail, Giant” value in test [3] (setting [9]) came out at 90; in test [3] (setting [10]) it was 90; in test [3] (setting [11]), 75; in test [3] (setting [12]), 90. Moreover, the “Plant response rating, Velvetleaf” value is listed as 85 in test [4] (setting [9]), 100 in test [4] (setting [10]), 80 in test [4] (setting [11]) and 95 in test [4] (setting [12]).
In the case of `Nc1nc(-c2ccc(Cl)cc2)nc(C(=O)[O-])c1Cl.[Na+]` [Compound 117], the “Plant response rating, Pigweed” value was determined as 100 in test [1] (setting [9]), 100 in test [1] (setting [10]), 65 in test [1] (setting [11]) and 100 in test [1] (setting [12]). Besides, the “Plant response rating, Morningglory” value is recorded as 90 in test [2] (setting [9]), 90 in test [2] (setting [10]), 10 in test [2] (setting [11]) and 85 in test [2] (setting [12]). In addition, the “Plant response rating, Foxtail, Giant” value in test [3] (setting [9]) came out at 80; in test [3] (setting [10]), 90; in test [3] (setting [11]) it was 50; in test [3] (setting [12]) it was 85. Besides, the “Plant response rating, Velvetleaf” value was 100 in test [4] (setting [9]), 100 in test [4] (setting [10]), 55 in test [4] (setting [11]) and 100 in test [4] (setting [12]).
With `COC(=O)c1nc(C2CC2)nc(N)c1OC` [Compound 59], the pest or weed control at 125 g/ha in test [1] (setting [5]) came out at 60%; in test [1] (setting [7]) it was 20%; in test [2] (setting [5]) it was 90%; in test [2] (setting [7]), 80%; in test [3] (setting [5]), 0%; in test [3] (setting [7]) it was 0%. Besides, the pest or weed control at 125 g/ha in test [4] (setting [5]) amounted to 60%; in test [4] (setting [7]) it was 10%. The pest or weed control at 500 g/ha is 80% in test [1] (setting [6]); 70% in test [1] (setting [8]); 100% in test [2] (setting [6]); 100% in test [2] (setting [8]); 35% in test [3] (setting [6]); 0% in test [3] (setting [8]). Also, the pest or weed control at 500 g/ha in test [4] (setting [6]) worked out at 85%; in test [4] (setting [8]), 45%.
For the compound `CCOC(=O)c1nc(-c2ccc3c(c2)OCO3)nc(N)c1Cl` [Compound 74], the pest or weed control at 125 g/ha is 60% in test [1] (setting [5]); 0% in test [1] (setting [7]); 40% in test [2] (setting [5]); 0% in test [2] (setting [7]); 60% in test [3] (setting [5]); 0% in test [3] (setting [7]). Further, the pest or weed control at 125 g/ha in test [4] (setting [5]) was 70%; in test [4] (setting [7]), 30%. Further, the pest or weed control at 500 g/ha in test [1] (setting [6]) stood at 70%; in test [1] (setting [8]) it was 40%; in test [2] (setting [6]) it was 30%; in test [2] (setting [8]), 30%; in test [3] (setting [6]) it was 70%; in test [3] (setting [8]), 40%. The pest or weed control at 500 g/ha was found to be 80% in test [4] (setting [6]) and 50% in test [4] (setting [8]).
For `CCCCOC(=O)c1nc(C2CC2)nc(N)c1Cl` [Compound 76], the “Plant response rating, Pigweed” value in test [1] (setting [9]) is 85; in test [1] (setting [10]), 95; in test [1] (setting [11]), 80; in test [1] (setting [12]), 90. The “Plant response rating, Morningglory” value in test [2] (setting [9]) stood at 90; in test [2] (setting [10]) it was 95; in test [2] (setting [11]), 100; in test [2] (setting [12]), 100. Further, the “Plant response rating, Foxtail, Giant” value turned out to be 90 in test [3] (setting [9]), 90 in test [3] (setting [10]), 70 in test [3] (setting [11]) and 85 in test [3] (setting [12]). The “Plant response rating, Velvetleaf” value in test [4] (setting [9]) is 80; in test [4] (setting [10]), 100; in test [4] (setting [11]), 90; in test [4] (setting [12]) it was 100.
For the compound `Nc1nc(C2CC2)nc(C(=O)[O-])c1Br.[Na+]` [Compound 113, 6-amino-5-bromo-2-cyclopropyl-4-pyrimidinecarboxylic acid monosodium salt], the pest or weed control at 125 g/ha in test [1] (setting [5]) was determined as 80%; in test [1] (setting [7]) it was 80%; in test [2] (setting [5]), 90%; in test [2] (setting [7]), 90%; in test [3] (setting [5]), 65%; in test [3] (setting [7]) it was 15%. The pest or weed control at 125 g/ha in test [4] (setting [5]) turned out to be 80%; in test [4] (setting [7]), 65%. In addition, the pest or weed control at 500 g/ha was found to be 90% in test [1] (setting [6]); 90% in test [1] (setting [8]); 90% in test [2] (setting [6]); 100% in test [2] (setting [8]); 85% in test [3] (setting [6]); 80% in test [3] (setting [8]). Also, the pest or weed control at 500 g/ha in test [4] (setting [6]) and in test [4] (setting [8]) was 95% throughout.
With `COC(=O)c1nc(-c2ccc(I)cc2)nc(N)c1Br` [Compound 128], the “Plant response rating, Pigweed” value in test [1] (setting [9]) stood at 55; in test [1] (setting [10]), 75; in test [1] (setting [11]), 0; in test [1] (setting [12]) it was 0. Also, the “Plant response rating, Morningglory” value is listed as 55 in test [2] (setting [9]), 80 in test [2] (setting [10]), 0 in test [2] (setting [11]) and 0 in test [2] (setting [12]). The “Plant response rating, Foxtail, Giant” value in test [3] (setting [9]), in test [3] (setting [10]), in test [3] (setting [11]) and in test [3] (setting [12]) was 0 each time. Further, the “Plant response rating, Velvetleaf” value in test [4] (setting [9]) was 65; in test [4] (setting [10]) it was 80; in test [4] (setting [11]), 0; in test [4] (setting [12]), 0.
